According to patent US20190022253A1, “UNIT DOSAGE OF APADENOSON” (University of Virginia Patent Foundation, priority 2008, published 2019):

Experiments:
patients [1] = test: Phase II study: coronary blood flow velocity monitored with a flow wire; type: in vivo, human
Protocol: that can be used in clinical perfusion imaging techniques (e.g., for diagnosing and assessing the extent of coronary artery disease) in U.S. Pat. No. 6,322,771. This agent has since been taken into Phase I and II clinical trials. In 2005, Dr. […] et al reported to the American Heart Association on the preliminary results of 127 patient SPECT Tc^99m sestamibi imaging studying comparing adenosine with Apadenoson using either 1 μg/kg or 2 μg/kg intravenous boluses of Apadenoson. […] In 2006, Dr. Kern et al reported to the American Heart Association the results of a Phase II study of Apadenoson, one goal of which was to determine an appropriate dose for Phase III clinical trials. Intravenous bolus dosages of 0.5, 1.0, 2.0, and 2.5 μg/kg were studied. […] In this Phase II study in 100 patients, conducted by Dr. Morton Kern, an independent investigator at UC Irvine, […] was administered by intracoronary injection, and coronary blood flow velocity was monitored with a flow wire. […] The previously reported increase in coronary blood flow velocity (CBFV) corresponding to an increase in dose of Apadenoson from 0.5 to 2 μg/kg was based on the increase in CBFV in a limited number of patients (see FIG. 1).

patients [2] = conditions: intravenous bolus, dosage from 0.5 to 2 μg/kg; limited number of patients (FIG. 1); Kern et al 2006; cited from earlier work

| Compound | dose response curve (patients [1]; 1 μg/kg or 2 μg/kg administered) | dose response of coronary blood flow velocity (CBFV) (patients [1]; entire sample of patients (FIG. 2, 33 patients), dose ≥1 μg/kg, in particular between 1 and 2.5 μg/kg) | peak flow compared with adenosine (patients [1]; increasing bolus doses, one patient (FIG. 1)) | average peak velocity for coronary blood flow versus dose (patients [2]) | coronary blood flow velocity (patients [1]; three intracoronary injections, one patient (FIG. 1)) |
| --- | --- | --- | --- | --- | --- |
| CCNC(=O)[C@H]1O[C@@H](n2cnc3c(N)nc(C#CC[C@H]4CC[C@H](C(=O)OC)CC4)nc32)[C@H](O)[C@@H]1O [Apadenoson] | no dose response curve is seen | no dose response is seen | achieved peak flow equivalent to adenosine | increase with a corresponding increase in dosage |  |
| Nc1ncnc2c1ncn2[C@@H]1O[C@H](CO)[C@@H](O)[C@H]1O [adenosine, reference compound] |  |  |  |  | increased blood flow velocity |
